Assays:
rabbit or human LDL = assay: Electrophoretic mobility in agarose gel of LDL oxidised with Cu2+; format: biochemical; conditions: 10 µM of Cu²⁺, 37°C approximately 24 hours, expressed by regarding the mobility of LDL as 1.00 (Control 1.61)
Method: (§1) The biological properties of the compounds as shown hereinafter were examined by the following methods. • (1) The amount of thiobarbituric acid reactive substances: 5 µM of Cu²⁺ was added to rabbit LDL, prepared by the method reported by Havel et al., followed by heating. Then the antioxidative effect of each compound was examined by using the thiobarbituric acid reactive substances (TBARS) thus formed as the guidance. […] 0.5 ml of an n-butanol solution containing 0.2 µM of MCLA and 10 mM of linoleic acid was introduced into a vial for luminescence analysis and the luminescence due to autoxidation was measured in a thermostat at 37°C. […] To the obtained plasma, were added EDTA-NaN₃ (a 5% solution of pH 7.4) and a benzamidine solution (60 mg/ml) respectively in amounts of 0.8 ml and 0.5 ml per 100 ml of the plasma. Then rabbit or human LDL (1.019 < d < 1.063) was prepared by ultracentrifugation in accordance with the method of Havel et al.*. After performing the ultracentifugation again, the LDL was washed and concentrated. Then it was dialyzed against a 150 mM NaCl - 2 mM Na₂HPO₄ solution at 4°C and KBr was removed. The protein content was determined by Lowry method** and then the LDL was subjected to the subsequent procedure. (Measurement of electrophoretic mobility in agarose gel) 10 µM of Cu²⁺ and a specimen were added to an LDL-containing solution (3.00 µg protein/ml). After incubating at 37°C for approximately 24 hours, a portion (1 µl) thereof was applied onto an agarose gel film (Universal Film, manufactured by Corning Co.) and then subjected to electrophoresis (Agarose Gel Electrophoresis System for Lipoprotein, manufactured by Corning Co.). Thus the mobility was measured by staining lipids with Fat Red 7B. […] After 3 days, peritoneal macrophages were collected from the mouse and incubated in an RPMI 1640 medium containing 10% of FBS. The macrophages were used in the • examination on the next day.

rabbit LDL = assay: Amount of thiobarbituric acid reactive substances (TBARS) formed on Cu2+ oxidation of LDL; format: biochemical; conditions: 5 µM of Cu²⁺ added to rabbit LDL, followed by heating
Method: as §1

O=C(c1ccc(O)c(O)c1)N1CCN(C(c2ccccc2)c2ccccc2)CC1 [Compound 197]
Mobility (rabbit or human LDL; Compound conc. 10 x 10⁻⁶ M): 1.00

CC(C)(C)c1cc(CNCc2ccccc2)cc(C(C)(C)C)c1O [Compound 185, N-benzyl-3,5-di-tert-butyl-4-hydroxybenzylamine]
Mobility (rabbit or human LDL; Compound conc. 10 x 10⁻⁶ M): 1.15

CC(C)=CCC/C(C)=C\CC/C(C)=C/Cn1cnc2c1C(=O)C(C)=C(C)C2=O [Compound 206, 5,6-dimethyl-1-[(2E,6Z)-3,7,11-trimethyldodeca-2,6,10-trienyl]-4,7-benzimidazoledione]
Mobility (rabbit or human LDL; Compound conc. 100 x 10⁻⁶ M): 1.00

O=C(Nc1ccc(C(=O)c2ccccc2)cc1)c1ccc(O)c(O)c1 [Compound 194]
Mobility (rabbit or human LDL; Compound conc. 10 x 10⁻⁶ M): 1.00

Oc1ccc(-c2onc3ccc(Cl)cc23)cc1O [Compound 205, 3-(3',4'-dihydroxyphenyl)-5-chlorobenzoiso-oxazole]
Mobility (rabbit or human LDL; Compound conc. 10 x 10⁻⁶ M): 1.00

COc1cc(NCc2ccccc2)cc(OC)c1OC [Compound 1, N-benzyl-3,4,5-trimethoxyaniline]
Formed TBARS (%) (rabbit LDL; Compound conc. 10^-5 M, 10 µM): 33% | Formed TBARS (%) (rabbit LDL; Compound conc. 10^-6 M, 1 µM): 49% | Mobility (rabbit or human LDL; Compound conc. 10 x 10⁻⁶ M): 1.17

CCCCCCCCCCCCN(CCCCCCCCCCCC)c1cc(OC)c(OC)c(OC)c1 [Compound 114]
Formed TBARS (%) (rabbit LDL; Compound conc. 10^-5 M, 10 µM): 93% | Formed TBARS (%) (rabbit LDL; Compound conc. 10^-6 M, 1 µM): 94%

COc1cc(NCc2ccc(Oc3ccccc3)cc2)cc(OC)c1OC [Compound 52]
Formed TBARS (%) (rabbit LDL; Compound conc. 10^-5 M, 10 µM): 13% | Formed TBARS (%) (rabbit LDL; Compound conc. 10^-6 M, 1 µM): 43%

COc1cc(NC(C)C2CCCCC2)cc(OC)c1OC (centres unmarked) [Compound 105]
Formed TBARS (%) (rabbit LDL; Compound conc. 10^-5 M, 10 µM): 8% | Formed TBARS (%) (rabbit LDL; Compound conc. 10^-6 M, 1 µM): 22%

COc1cc(NCc2ccccn2)cc(OC)c1OC [Compound 98]
Formed TBARS (%) (rabbit LDL; Compound conc. 10^-5 M, 10 µM): 43% | Formed TBARS (%) (rabbit LDL; Compound conc. 10^-6 M, 1 µM): 79%

C=CCC(Nc1cc(OC)c(OC)c(OC)c1)C1CCCCC1 (centres unmarked) [Compound 107]
Formed TBARS (%) (rabbit LDL; Compound conc. 10^-5 M, 10 µM): 7% | Formed TBARS (%) (rabbit LDL; Compound conc. 10^-6 M, 1 µM): 20%

COc1cc(NCC=C(C)C)cc(OC)c1OC [Compound 116]
Formed TBARS (%) (rabbit LDL; Compound conc. 10^-5 M, 10 µM): 33% | Formed TBARS (%) (rabbit LDL; Compound conc. 10^-6 M, 1 µM): 61%

COc1cc(NCc2ccc(OCCCCCCC(=O)O)cc2)cc(OC)c1OC [Compound 54]
Formed TBARS (%) (rabbit LDL; Compound conc. 10^-5 M, 10 µM): 16% | Formed TBARS (%) (rabbit LDL; Compound conc. 10^-6 M, 1 µM): 46%

CCCCCCCCOc1ccc(CNc2cc(OC)c(OC)c(OC)c2)cc1 [Compound 42]
Formed TBARS (%) (rabbit LDL; Compound conc. 10^-5 M, 10 µM): 19% | Formed TBARS (%) (rabbit LDL; Compound conc. 10^-6 M, 1 µM): 72%

COc1cc(NCC2CCCCC2)cc(OC)c1OC [Compound 103]
Formed TBARS (%) (rabbit LDL; Compound conc. 10^-5 M, 10 µM): 8% | Formed TBARS (%) (rabbit LDL; Compound conc. 10^-6 M, 1 µM): 23%

COc1cc(NCC=Cc2ccccc2)cc(OC)c1OC [Compound 85]
Formed TBARS (%) (rabbit LDL; Compound conc. 10^-5 M, 10 µM): 20% | Formed TBARS (%) (rabbit LDL; Compound conc. 10^-6 M, 1 µM): 64%

COc1cc(NCc2ccco2)cc(OC)c1OC [Compound 95]
Formed TBARS (%) (rabbit LDL; Compound conc. 10^-5 M, 10 µM): 29% | Formed TBARS (%) (rabbit LDL; Compound conc. 10^-6 M, 1 µM): 66%

COc1cc(NC/C=C(\C)CCC=C(C)C)cc(OC)c1OC [Compound 118]
Formed TBARS (%) (rabbit LDL; Compound conc. 10^-5 M, 10 µM): 37% | Formed TBARS (%) (rabbit LDL; Compound conc. 10^-6 M, 1 µM): 56% | Mobility (rabbit or human LDL; Compound conc. 10 x 10⁻⁶ M): 1.17

COc1cc(NC2CCOc3ccccc32)cc(OC)c1OC (centres unmarked) [Compound 101]
Formed TBARS (%) (rabbit LDL; Compound conc. 10^-5 M, 10 µM): 18% | Formed TBARS (%) (rabbit LDL; Compound conc. 10^-6 M, 1 µM): 41%

COc1cc(NCCC(C)CCCC(C)CCCC(C)CCCC(C)C)cc(OC)c1OC (centres unmarked) [Compound 115]
Formed TBARS (%) (rabbit LDL; Compound conc. 10^-5 M, 10 µM): 15% | Formed TBARS (%) (rabbit LDL; Compound conc. 10^-6 M, 1 µM): 71%

CC(C)=CCC/C(C)=C/CCC(C)Nc1ccc(-c2cc(C(C)(C)C)c(O)c(C(C)(C)C)c2)cc1 (stereo not drawn) [Compound 188, 4-[4'-[(trans-1,5,9-trimethyl-4,8-decadienyl)amino]phenyl]2,6-di-tert-butylphenol]
Mobility (rabbit or human LDL; Compound conc. 10 x 10⁻⁶ M): 1.15

COc1cc(NCC2CCCC2)cc(OC)c1OC [Compound 102]
Formed TBARS (%) (rabbit LDL; Compound conc. 10^-5 M, 10 µM): 15% | Formed TBARS (%) (rabbit LDL; Compound conc. 10^-6 M, 1 µM): 27%

COc1cc(NCCCCc2ccccc2)cc(OC)c1OC [Compound 71]
Formed TBARS (%) (rabbit LDL; Compound conc. 10^-5 M, 10 µM): 7% | Formed TBARS (%) (rabbit LDL; Compound conc. 10^-6 M, 1 µM): 20%

COc1cc(NCCc2ccccc2)cc(OC)c1OC [Compound 69]
Formed TBARS (%) (rabbit LDL; Compound conc. 10^-5 M, 10 µM): 18% | Formed TBARS (%) (rabbit LDL; Compound conc. 10^-6 M, 1 µM): 36%

From patent EP0515684A1, “INHIBITOR OF DENATURED LDL FORMATION” (Chugai Seiyaku Kabushiki Kaisha, priority 1990, dated 1991)
